# Test results: US12485085B2, “PPAR agonist complex and methods of use” (RODAN & FIELDS, LLC, priority 2019, dated 2025)
# Legend:
# [1] = tested on: EpiDerm skin substitutes; test: Skin irritation in reconstructed human epidermal model EpiDerm (MTT viability); type: cell-based; set-up: key to Classification: I = irritant; NI = non irritant
# Experimental: Materials and Methods: Thirty p of each sample was applied on top of EpiDerm skin substitutes.
# EpiDerm skin substitutes (cat. EPI-200-SIT; Lot #29690) and 5% SDS solution (positive control) were obtained from MatTek (Ashland, Mass.). The test was generally performed according to MatTek protocol. The study was conducted in line with requirements of OECD GD 34 and ECVAM Performance Standard document for applying human skin models to in vitro skin irritation. This protocol utilizes the MTT-based cytotoxicity readout as the experimental endpoint, and thus effectively measures the cytotoxicity of test materials at the level of the skin. MTT [3-(4,5-Dimethylthiazol-2-yl)-2,5-diphenyltetrazolium bromide, a tetrazole] which is yellow, is reduced to purple formazan in living cells and this conversion is measured in a colorimetric assay. MTT assay measures the activity of succinate dehydrogenase, a key enzyme in the respiratory electron transport chain in mitochondria and is a generally-accepted test for measuring cytotoxicity.
# Statistically significant variation was defined as ≥15% variation from the water control with p value<0.05 calculated using double-tailed t-test.
# [2] = tested on: IL-8; test: IL-8 quantification in EpiDerm-conditioned media (ELISA); type: cell-based, human
# Experimental: The test material was assayed in duplicates. Controls were assayed in triplicates. The negative control was type I sterile water and Finsolv. The positive control was 5% SDS. All incubations were at 37° C. The pre-incubation time 1 (tissue acclimatization time) was overnight and the exposure to samples was 60 min. Tissues were then rinsed with sterile PBS and placed in the new culture medium. Post-incubation time 1 was 24 h, afterward medium was collected and saved at −20° C. for later interleukin quantification, and tissues were placed in new medium. Post-incubation time 2 was 18 h (both post-incubation times are to allow the consequences of the potential irritation to fully develop), MTT test (irritation readout) was 3 h and the extraction was left overnight. The extracted formazan (the product of the MTT conversion, proportional to cell viability) was quantified with Molecular Devices microplate reader MAX190 by colorimetry. Signal quantification was performed using SoftMax3.1.2PRO at 560 nm. For IL-8 quantification (a complementary method for assessing skin irritation), 100 μl samples of media from each well were tested in triplicates using CytoSet antibody pair for ELISA from Thermo Fischer Scientific (Waltham, Mass.; cat. #133301) according to the manufacturer's instructions. […]
# [3] = target: T1, PPAR-α (Homo sapiens, UniProt Q07869); test: PPAR-α luciferase reporter assay in CHO cells
# T1 sequence (Q07869 1-468): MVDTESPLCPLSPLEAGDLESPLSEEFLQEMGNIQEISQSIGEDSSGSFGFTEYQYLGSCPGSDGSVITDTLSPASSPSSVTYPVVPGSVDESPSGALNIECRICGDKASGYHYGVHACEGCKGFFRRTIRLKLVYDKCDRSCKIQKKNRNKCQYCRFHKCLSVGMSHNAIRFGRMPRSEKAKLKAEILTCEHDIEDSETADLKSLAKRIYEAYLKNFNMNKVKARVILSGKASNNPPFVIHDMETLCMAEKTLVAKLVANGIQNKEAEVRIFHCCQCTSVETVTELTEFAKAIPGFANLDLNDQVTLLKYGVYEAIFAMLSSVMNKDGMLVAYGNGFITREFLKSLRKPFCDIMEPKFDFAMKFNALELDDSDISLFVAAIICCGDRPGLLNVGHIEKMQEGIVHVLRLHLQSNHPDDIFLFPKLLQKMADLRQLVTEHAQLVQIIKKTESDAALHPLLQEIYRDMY
# Experimental: The objective of this project was to determine the effects of the test materials listed in Table 4 on the transcription regulatory activity of PPARα in a luciferase reporter assay system.
# A variety of samples were tested on the effect on the transcription of the PPAR-α controlled luciferase reporter gene.
# PPAR-α Luciferase experiment: Compositions were tested at 250 μg/mL Dilution in DMSO (FIG. 1) and 500 μg/mL Dilution in DMSO (FIG. 2).
# Table 5 summarizes the effect of different concentrations of test materials on the transcriptional activation of the luciferase reporter gene under the PPAR-α-controlled promoter (2 separate experiments, Experiment 1 wherein sample prep was done in water and Experiment 2 wherein the sample prep was done in DMSO).
# [4] = tested on: CHO cells; test: Cytotoxicity observed in the PPAR-α luciferase reporter assay; conditions: for Cytotoxic?: Experiment 2 (sample prep in DMSO)
# Experimental: A variety of samples were tested on the effect on the transcription of the PPAR-α controlled luciferase reporter gene. CHO cells were utilized and are an epithelial cell line derived from the ovary of the Chinese hamster.
# [5] = tested on: C57BL/6 mouse melanocytes; test: Melanin content in melanocytes and melanocyte-conditioned medium; type: cell-based; conditions: 3 days; for % Control (extracellular melanin): melanocyte-conditioned medium
# Experimental: Materials & Methods: Test material was dissolved at 100 mg/ml in DMSO the day of the experiment, diluted in sterile distilled water and samples were added in duplicates to confluent cultures of C57BL/6 mouse melanocytes well plate format. The cell growth medium was Opti-MEM supplemented with 7% horse serum (ThermoFisher Scientific, Waltham, Mass.) and antibiotics. Medium was freshly changed on Day 0 of the experiment. Cells were grown in the presence of the test material for 3 days, afterward they were frozen at −20° C., lysed in Solvable (Perkin Elmer, Waltham, Mass.) at 37° C. for 60 min. and colorimetrically quantified at 490 nm with Molecular Devices (Sunnyvale, Calif.) microplate reader MAX190. Kojic acid (100 μg/ml and 200 μg/ml) was the positive control. Statistically significant variation was defined as >20% variation from the water control with p value<0.05 calculated with double-tailed t-test.
# Test materials were added to exponentially-growing cultures and the experiment was terminated 3 days later.
# [6] = Lipophilic oxygen radical absorbance capacity (Lipo-ORAC) assay; type: biochemical; conditions: expressed in Trolox equivalents
# Experimental: Because of its damaging effect on vital biological systems, oxidative stress has been implicated in more than 100 diseases and aging. The objective of this test was to measure the antioxidant potential of the test materials listed in Table I using lipophilic oxygen radical absorbance capacity (Lipo-ORAC) assay (Stock solutions were prepared in acetone at 2% and diluted in 7% RMCD immediately before the experiment). Lipo-ORAC assay measures the ability of antioxidant compounds to inhibit the decline in disodium fluorescein (FL) fluorescence that is induced by peroxyl radical generator, 2′,2′-Azobis (2-amidinopropane) dihydrochloride (AAPH). The peroxyl radical is one of the most common reactive oxygen species (ROS) found in the body. This procedure incorporates random methylated beta-cyclodextrin as a solubility enhancer and allows for quantification of antioxidant potential of lipophilic samples, using Trolox as standard. Applied Biosystems Cytofluor 4000 fluorometer and software were used for the quantification of this assay.
# [7] = target: T2, PPAR-γ (Homo sapiens, UniProt P37231); test: PPAR-γ luciferase experiment; type: cell-based; conditions: statement of the description
# T2 sequence (P37231 1-505): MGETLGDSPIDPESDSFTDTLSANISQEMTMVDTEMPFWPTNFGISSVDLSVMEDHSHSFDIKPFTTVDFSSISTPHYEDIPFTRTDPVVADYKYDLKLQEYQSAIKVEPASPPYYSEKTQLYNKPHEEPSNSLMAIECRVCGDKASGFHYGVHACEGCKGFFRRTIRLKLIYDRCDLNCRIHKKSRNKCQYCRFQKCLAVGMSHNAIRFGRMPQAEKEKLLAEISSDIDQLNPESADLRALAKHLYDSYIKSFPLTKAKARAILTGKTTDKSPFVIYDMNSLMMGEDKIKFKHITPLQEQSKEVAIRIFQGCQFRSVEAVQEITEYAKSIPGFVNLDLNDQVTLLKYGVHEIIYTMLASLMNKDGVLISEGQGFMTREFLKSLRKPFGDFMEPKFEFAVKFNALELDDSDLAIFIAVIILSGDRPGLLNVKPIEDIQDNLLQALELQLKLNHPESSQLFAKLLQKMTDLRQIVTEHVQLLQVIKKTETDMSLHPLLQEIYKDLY
# Experimental: PPAR-γ Luciferase experiment: Compositions were tested at 50 μg/mL Dilution in DMSO (FIG. 3) and 200 μg/mL Dilution in DMSO (FIG. 4). Positive control: Rosiglitazone at 300 nM potent and selective agonist of PPARγ.
# [8] = Experiment 2 (sample prep in DMSO), 250 μg/mL
# [9] = Experiment 2 (sample prep in DMSO), 500 μg/mL
# [10] = Experiment 1 (sample prep in water), 300 nM
# [11] = Experiment 2 (sample prep in DMSO), 300 nM
compound,measurement,setting,value
CCCCCCCCCCCCOS(=O)(=O)[O-].[Na+] [5% SDS],cells viable,[1]; MTT,12%
same,Mean of OD,"[1]; MTT formazan at 560 nm, 60 min exposure, RFV3 at 10% in Finsolv",0.038
same,Mean of Viability [% water],"[1]; MTT, 60 min exposure, RFV3 at 10% in Finsolv",2 % water
same,Classification,[1]; RFV3 at 10% in Finsolv,I
same,decrease of the IL-8 level,[2],55%
"CCCCCCCCC(O)CCCCCCCCC(=O)O (centres unmarked) [10HSA, Hydroxystearic Acid]",% Control (H2O),[3]; [8],45%
same,Chemoluminescence,[3]; [8],2 arbitrary units
same,% Control (H2O),[3]; [9],41%
same,Chemoluminescence,[3]; [9],2 arbitrary units
same,Cytotoxic?,[4]; 250 μg/mL,Yes
same,Cytotoxic?,[4]; 500 μg/mL,Yes
Cc1nc(-c2ccc(C(F)(F)F)cc2)sc1C(=O)NCc1ccc(OC(C)(C)C(=O)O)cc1 [GW590735],% Control (H2O),[3]; [10],365%
same,Chemoluminescence,[3]; [10],344 arbitrary units
same,% Control (H2O),[3]; [11],341%
same,Chemoluminescence,[3]; [11],19 arbitrary units
same,effect on transcriptional activation of the luciferase reporter gene under the PPAR-α-controlled promoter (in words),[3]; summary of Table 5,strongly upregulated
O=c1cc(CO)occ1O [Kojic acid],% Control (intracellular melanin),[5]; 100 μg/ml,92%
same,% Control (extracellular melanin),[5]; 100 μg/ml,90%
same,% Control (intracellular melanin),[5]; 200 μg/ml,86%
same,% Control (extracellular melanin),[5]; 200 μg/ml,84%
CCCCCCCCC(CCCCCC)C(=O)OC[C@H](OC(=O)C(CCCCCC)CCCCCCCC)[C@H]1OC(=O)C(OC(=O)C(CCCCCC)CCCCCCCC)=C1OC(=O)C(CCCCCC)CCCCCCCC (some centres unmarked) [Tetrahexyldecyl (THD) ascorbate],ORAC (Lipo-ORAC score),[6],0 μmoles TE/g
same,ORAC (Lipo-ORAC score),[6]; listed as THD ascorbate,no activity
Cc1c(C)c2c(c(C)c1O)CCC(C)(C(=O)O)O2 (centres unmarked) [Trolox],ORAC (Lipo-ORAC score),[6],3985 μmoles TE/g
"CCCCCC/C=C/C#CCCCCCCCC(=O)O [XA, (E)-Octadec-11-en-9-ynoic acid]",% Control (H2O),[3]; [8],145%
same,Chemoluminescence,[3]; [8],8 arbitrary units
same,% Control (H2O),[3]; [9],24%
same,Chemoluminescence,[3]; [9],1 arbitrary units
same,PPAR / PPARα agonist activity (in words),[3]; statements of the description,very mild PPARα agonist
same,cytotoxicity (in words),"[4]; Example 8, FIG. 9, 500 μg/mL in DMSO",cytotoxic
same,Cytotoxic?,[4]; 500 μg/mL,Yes
same,PPARγ agonist activity (in words),[7],moderate PPARγ agonist
Octadecenedioic Acid [ODA],% Control (H2O),[3]; [8],278%
same,Chemoluminescence,[3]; [8],15 arbitrary units
same,% Control (H2O),[3]; [9],97%
same,Chemoluminescence,[3]; [9],5 arbitrary units
